For data set [1], the system named is J53Z1 cells harboring the JAK2V617F mutation and HCD-57 cells transfected with oncogenic mutations. Kind of data set: Growth of cell lines transfected with oncogenes. The class given is cell-based. The source says: (§1) Suzhou Zelgen Biopharmaceuticals Co., Ltd. Jaktinib Hydrochloride Tablets Chemical Drug Class 1 New Drug and ZG0178. However, the inhibitory effect on the activity of Ba/F3-EpoR cell line […]
(§2) respectively. Obviously, this selective inhibition is associated with the aberrant expression of JAK2 in Ba/F3-EpoR-JAK2V617F mutant cells, and the degree of ZG0163 inhibition on JAK-STAT signaling pathway in this cell line. […]
(§3) cells, and the effects of ZG0163 was similar to those of positive control compounds, […]
(§4) In Vitro Inhibitory Effect of ZG0128 on Cell Lines Transfected with Oncogenes and Primary Blood Cells in Patients with Polycythemia Vera
(§5) In vitro cell culture assay was used to determine whether compound ZG0128 […]
(§6) cell line harboring a JAK2V617F mutation, and 8 HCD-57 cell lines stably transfected with oncogenic mutations JAK2V617F, MPLW515L, KITD816V, NPM-ALK, FLT3-ITD, FLT3D835H, FLT3D835Y and KRasG12V, respectively. In addition, study the inhibitory effects of compound ZG0128 on the growth of hematopoietic progenitor cells in patients with polycythemia vera.
(§7) 9 cell lines were similar to those of positive control drug ZG0192. At the sub-micromolar concentration, both compounds ZG0128 and ZG0192 were able to […]
(§8) the growth of HCD-57 cells transfected with oncogenic mutations JAK2V617F, […]
(§9) spectrum inhibitory effect on tyrosine kinases. […]

Data set [2] concerns primary cells harboring the JAK2V617F mutation in patients with polycythemia vera. The data set can be described thus: Colony forming of erythroid hematopoietic cells of polycythemia vera patients. It is filed as cell-based, human. The note with it: 9 patients.
Text: as §1, §2, §3, §4, §5, §6, §7, §8, §9

For data set [3], the target named is T1, CYP1A2 (Homo sapiens, UniProt P05177).
T1 construct: using mixed human liver microsomes and human primary hepatocytes as the in vitro; from tissue; host or cells: mixed (pooled) human liver microsomes
The class given is in vitro ADME. The conditions noted are these: microsomes.

The target in data set [4] is T2, CYP2B6 (Homo sapiens, UniProt P20813).
T2 construct: using mixed human liver microsomes and human primary hepatocytes as the in vitro; from tissue; host or cells: mixed (pooled) human liver microsomes
It is filed as in vitro ADME. The note with it: microsomes.

The target of data set [5] is T3, CYP2C8 (Homo sapiens, UniProt P10632).
T3 construct: using mixed human liver microsomes and human primary hepatocytes as the in vitro; from tissue; host or cells: mixed (pooled) human liver microsomes
The class given is in vitro ADME. The note with it: microsomes.

Data set [6] concerns the target T4, CYP2C9 (Homo sapiens, UniProt P11712).
T4 construct: using mixed human liver microsomes and human primary hepatocytes as the in vitro; from tissue; host or cells: mixed (pooled) human liver microsomes
It is filed as in vitro ADME. The conditions noted are these: microsomes.

Data set [7] has as its target T5, CYP2C19 (Homo sapiens, UniProt P33261).
T5 construct: using mixed human liver microsomes and human primary hepatocytes as the in vitro; from tissue; host or cells: mixed (pooled) human liver microsomes
It is filed as in vitro ADME. The note with it: microsomes.

For data set [8], the target named is T6, CYP2D6 (Homo sapiens, UniProt P10635).
T6 construct: using mixed human liver microsomes and human primary hepatocytes as the in vitro; from tissue; host or cells: mixed (pooled) human liver microsomes
It is filed as in vitro ADME. The note with it: microsomes.

In data set [9] the target is T7, CYP3A4 (Homo sapiens, UniProt P08684).
T7 construct: using mixed human liver microsomes and human primary hepatocytes as the in vitro; from tissue; host or cells: mixed (pooled) human liver microsomes
The data set can be described thus: CYP inhibition, mixed human liver microsomes. It is filed as in vitro ADME.

Structures can show the parent of a compound that is named as a salt. Where two headings read alike, the source gives them in different places.

T7 sequence (P08684 whole entry): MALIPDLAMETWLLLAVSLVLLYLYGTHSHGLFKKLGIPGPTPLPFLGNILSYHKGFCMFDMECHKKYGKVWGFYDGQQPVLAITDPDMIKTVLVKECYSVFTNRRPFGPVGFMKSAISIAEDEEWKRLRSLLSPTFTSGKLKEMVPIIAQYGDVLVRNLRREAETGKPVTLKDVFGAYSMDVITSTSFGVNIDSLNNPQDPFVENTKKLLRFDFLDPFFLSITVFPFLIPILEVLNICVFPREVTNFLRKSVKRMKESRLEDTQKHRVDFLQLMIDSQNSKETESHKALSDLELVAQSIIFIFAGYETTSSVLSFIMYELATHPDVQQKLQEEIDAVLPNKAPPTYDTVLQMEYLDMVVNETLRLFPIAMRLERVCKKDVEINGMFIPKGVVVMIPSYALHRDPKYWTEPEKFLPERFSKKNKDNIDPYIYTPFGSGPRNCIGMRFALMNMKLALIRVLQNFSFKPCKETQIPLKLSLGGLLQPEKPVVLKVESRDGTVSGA
T2 sequence (P20813 whole entry): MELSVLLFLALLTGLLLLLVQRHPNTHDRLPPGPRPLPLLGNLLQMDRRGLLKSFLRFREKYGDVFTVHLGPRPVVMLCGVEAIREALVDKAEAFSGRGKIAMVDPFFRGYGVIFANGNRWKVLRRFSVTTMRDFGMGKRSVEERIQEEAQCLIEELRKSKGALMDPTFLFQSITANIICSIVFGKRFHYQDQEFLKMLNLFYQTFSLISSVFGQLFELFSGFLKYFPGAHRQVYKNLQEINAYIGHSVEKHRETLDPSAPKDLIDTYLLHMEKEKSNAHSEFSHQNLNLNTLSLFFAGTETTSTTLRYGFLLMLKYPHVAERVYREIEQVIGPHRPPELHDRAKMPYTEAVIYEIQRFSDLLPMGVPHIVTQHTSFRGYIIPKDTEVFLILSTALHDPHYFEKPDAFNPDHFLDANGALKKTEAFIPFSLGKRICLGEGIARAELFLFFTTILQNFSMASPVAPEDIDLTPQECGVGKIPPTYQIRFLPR
T1 sequence (P05177 whole entry): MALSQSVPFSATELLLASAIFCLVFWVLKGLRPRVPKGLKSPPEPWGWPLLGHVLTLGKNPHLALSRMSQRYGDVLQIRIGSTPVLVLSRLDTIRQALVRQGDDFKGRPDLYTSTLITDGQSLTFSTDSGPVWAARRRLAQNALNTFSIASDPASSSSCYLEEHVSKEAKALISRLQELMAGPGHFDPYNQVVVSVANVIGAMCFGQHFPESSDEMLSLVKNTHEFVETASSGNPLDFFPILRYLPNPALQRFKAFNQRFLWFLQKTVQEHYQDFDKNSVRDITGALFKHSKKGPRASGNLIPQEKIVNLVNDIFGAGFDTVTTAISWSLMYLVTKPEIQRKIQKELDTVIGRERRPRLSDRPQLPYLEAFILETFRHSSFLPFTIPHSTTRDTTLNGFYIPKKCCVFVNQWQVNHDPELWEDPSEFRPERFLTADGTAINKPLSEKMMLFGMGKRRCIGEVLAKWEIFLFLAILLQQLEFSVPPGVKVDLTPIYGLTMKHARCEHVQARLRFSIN
T6 sequence (P10635 whole entry): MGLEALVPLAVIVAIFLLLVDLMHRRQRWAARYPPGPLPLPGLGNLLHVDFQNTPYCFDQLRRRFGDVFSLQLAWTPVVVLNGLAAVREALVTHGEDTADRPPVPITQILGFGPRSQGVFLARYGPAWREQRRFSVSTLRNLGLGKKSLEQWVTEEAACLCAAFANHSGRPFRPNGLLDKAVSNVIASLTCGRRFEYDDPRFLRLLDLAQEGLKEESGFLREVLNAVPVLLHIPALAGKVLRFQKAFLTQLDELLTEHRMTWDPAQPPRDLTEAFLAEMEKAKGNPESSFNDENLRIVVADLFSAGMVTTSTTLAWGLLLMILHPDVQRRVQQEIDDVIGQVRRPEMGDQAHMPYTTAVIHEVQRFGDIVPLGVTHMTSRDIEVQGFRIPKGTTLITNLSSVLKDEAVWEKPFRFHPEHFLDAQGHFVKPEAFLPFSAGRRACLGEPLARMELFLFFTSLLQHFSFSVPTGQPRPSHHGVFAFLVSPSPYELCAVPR
T3 sequence (P10632 whole entry): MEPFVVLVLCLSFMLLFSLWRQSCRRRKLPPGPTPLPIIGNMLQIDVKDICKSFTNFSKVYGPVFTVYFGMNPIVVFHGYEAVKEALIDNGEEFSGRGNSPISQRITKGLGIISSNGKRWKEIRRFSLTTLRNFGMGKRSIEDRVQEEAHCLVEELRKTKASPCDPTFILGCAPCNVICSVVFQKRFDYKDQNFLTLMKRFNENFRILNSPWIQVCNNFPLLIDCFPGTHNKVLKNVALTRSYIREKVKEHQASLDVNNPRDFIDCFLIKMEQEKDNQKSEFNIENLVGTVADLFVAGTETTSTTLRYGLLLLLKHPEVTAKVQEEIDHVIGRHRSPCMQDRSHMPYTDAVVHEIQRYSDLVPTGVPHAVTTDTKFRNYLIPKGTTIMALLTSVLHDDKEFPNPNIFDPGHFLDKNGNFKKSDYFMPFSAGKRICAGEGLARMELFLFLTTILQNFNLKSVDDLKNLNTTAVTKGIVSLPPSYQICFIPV
T4 sequence (P11712 whole entry): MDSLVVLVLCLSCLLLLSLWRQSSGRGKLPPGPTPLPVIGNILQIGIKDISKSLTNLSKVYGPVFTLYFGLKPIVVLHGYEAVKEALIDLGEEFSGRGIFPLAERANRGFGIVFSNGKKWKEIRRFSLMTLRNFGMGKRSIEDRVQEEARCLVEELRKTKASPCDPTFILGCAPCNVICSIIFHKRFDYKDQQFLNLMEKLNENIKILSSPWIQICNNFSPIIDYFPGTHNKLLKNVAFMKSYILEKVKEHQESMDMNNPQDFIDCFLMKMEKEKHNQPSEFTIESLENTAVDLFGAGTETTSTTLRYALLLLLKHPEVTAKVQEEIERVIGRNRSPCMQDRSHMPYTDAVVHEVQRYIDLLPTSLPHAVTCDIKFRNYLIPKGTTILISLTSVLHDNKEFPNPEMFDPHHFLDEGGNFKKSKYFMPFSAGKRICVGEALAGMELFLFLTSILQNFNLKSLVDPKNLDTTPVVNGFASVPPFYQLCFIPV
T5 sequence (P33261 whole entry): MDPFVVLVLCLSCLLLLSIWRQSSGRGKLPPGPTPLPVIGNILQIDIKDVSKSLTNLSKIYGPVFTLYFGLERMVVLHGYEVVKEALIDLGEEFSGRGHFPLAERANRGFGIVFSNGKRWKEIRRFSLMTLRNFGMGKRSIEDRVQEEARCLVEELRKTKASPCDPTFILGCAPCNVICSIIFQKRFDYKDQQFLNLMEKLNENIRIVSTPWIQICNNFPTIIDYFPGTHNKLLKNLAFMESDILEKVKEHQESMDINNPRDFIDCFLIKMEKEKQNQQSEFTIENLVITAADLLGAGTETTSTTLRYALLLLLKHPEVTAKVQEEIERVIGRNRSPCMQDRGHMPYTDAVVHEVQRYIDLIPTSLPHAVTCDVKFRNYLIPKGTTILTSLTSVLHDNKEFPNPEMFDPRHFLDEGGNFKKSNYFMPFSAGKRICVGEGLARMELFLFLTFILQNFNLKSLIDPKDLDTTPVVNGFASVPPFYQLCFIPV

As for `N#CCNC(=O)c1ccc(-c2ccnc(Nc3ccc(N4CCOCC4)cc3)n2)cc1` [ZG0128, Jaktinib Dihydrochloride Monohydrate], the IC50 in data set [1] (J53Z1 and HCD-57 with JAK2V617F, MPLW515L, KITD816V, FLT3-ITD, FLT3D835H, FLT3D835Y, read-out: IC50, growth inhibition, range over cell lines) is 310 to 710 nM; in data set [1] (transfected JAK2V617F cell lines, read-out: IC50), 610 nM; in [2] it was 180 nM; in [3] it was > 100 µM; in data set [4] it was > 100 µM; in data set [5] it was > 100 µM. Besides, the IC50 in data set [6] was > 100 µM; in data set [7], > 100 µM; in data set [8], > 100 µM; in data set [9] (microsomes), > 100 µM; in [9] (midazolam 1'-hydroxylation, read-out: IC50), > 100 µM.

The values are drawn from PMC7849180 (Frontiers in Pharmacology, 2020).
